# In patent US20120277312A1, “Ethylgallate and Related Compounds as a Treatment for Sepsis and Septic Shock” (priority 2009, published 2012):
# “Also recorded” adds a separate entry of the source.
# Target: T1, lysozyme (Homo sapiens, UniProt P61626)
# T1 sequence (P61626 19-148): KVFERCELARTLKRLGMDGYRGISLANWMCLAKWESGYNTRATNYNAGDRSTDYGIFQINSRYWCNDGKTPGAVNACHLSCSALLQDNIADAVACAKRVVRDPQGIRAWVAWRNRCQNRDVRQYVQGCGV
# Experiment: Lysozyme-induced hydrogen peroxide generation measured by Ultra Amplex Red assay
# Format: biochemical
# Settings: 6.5×10^−6 mol/L lysozyme
row,Molecule,inhibition of lysozyme-induced hydrogen peroxide generation
1,C[S+](C)[O-] [DMSO],do not inhibit
2,OC[C@@H](O)[C@@H](O)[C@H](O)[C@H](O)CO [mannitol],do not inhibit

# System: lysozyme's vasodilatory effect in canine carotid artery preparation
# Experiment: Lysozyme-induced vasodilation in canine carotid artery preparation (in-vitro)
# Settings: canine carotid artery preparation, in-vitro
# Description: Lysozyme produces vasodilation by intrinsically generating hydrogen peroxide (H2O2) that leads to activation of signaling pathways resulting in these hemodynamic effects (7).
# Ethyl gallate is added to food as an antioxidant. It is the ethyl ester of gallic acid. Though found naturally in a variety of plant sources including walnuts (8), ethyl gallate is produced from gallic acid and ethanol (9). […] It is of note that if a substance could not inhibit lysozyme's effect in-vitro, then it would be worthless to pursue an in-vivo study.
row,Molecule,block of lysozyme's vasodilatory effect
1,CC(=O)N[C@@H](CS)C(=O)O [N-acetylcyteine],failed to block
2,CC(/C=C/C=C(\C)C(=O)O[C@@H]1O[C@H](CO[C@@H]2O[C@H](CO)[C@@H](O)[C@H](O)[C@H]2O)[C@@H](O)[C@H](O)[C@H]1O)=C\C=C\C=C(C)\C=C\C=C(/C)C(=O)O[C@@H]1O[C@H](CO[C@@H]2O[C@H](CO)[C@@H](O)[C@H](O)[C@H]2O)[C@@H](O)[C@H](O)[C@H]1O [crocin],failed to block
3,COc1cc(/C=C/C(=O)CC(=O)/C=C/c2ccc(O)c(OC)c2)ccc1O [curcumin],failed to block
4,O=c1oc2c(O)c(O)cc3c(=O)oc4c(O)c(O)cc1c4c23 [ellagic acid],failed to block
5,O=C(O[C@@H]1Cc2c(O)cc(O)cc2O[C@@H]1c1ccc(O)c(O)c1)c1cc(O)c(O)c(O)c1 [epicathechin gallate],failed to block
6,O=C(O[C@@H]1Cc2c(O)cc(O)cc2O[C@@H]1c1cc(O)c(O)c(O)c1)c1cc(O)c(O)c(O)c1 [epigalloccatechin gallate],failed to block
7,"CCOC(=O)c1ccc(O)c(O)c1 [ethyl 3,4-dihydroxybenzoate]",blocked
8,"O=C(O)c1cc(O)c(O)c(O)c1 [gallic acid, reference compound]",could not block; also recorded: failed to block
9,COc1ccccc1O [guaicol],failed to block
10,C=C(C)[C@H]1CC=C(C)CC1 [limonene],failed to block
11,O=c1cc(-c2ccc(O)c(O)c2)oc2cc(O)cc(O)c12 [luteolin],failed to block
12,OC[C@@H](O)[C@@H](O)[C@H](O)[C@H](O)CO [mannitol],worked
13,COC(=O)c1cc(O)c(O)c(O)c1 [methyl gallate],blocked
14,CCCOC(=O)c1cc(O)c(O)c(O)c1 [propyl gallate],failed to block
15,O.O.O=c1c(O)c(-c2ccc(O)c(O)c2)oc2cc(O)cc(O)c12 [quercetin dihydrate],failed to block
16,N[C@@H](CCC(=O)N[C@@H](CS)C(=O)NCC(=O)O)C(=O)O [reduced glutathione],failed to block
17,O=C1O[C@H]([C@@H](O)CO)C([O-])=C1O.[Na+] [sodium ascorbate],failed to block
18,O=C([O-])c1ccccc1.[Na+] [sodium benzoate],failed to block
19,catechin gallate,failed to block

# Target: T2, catalase (Homo sapiens, UniProt P04040)
# T2 sequence (P04040 2-527 limits assumed): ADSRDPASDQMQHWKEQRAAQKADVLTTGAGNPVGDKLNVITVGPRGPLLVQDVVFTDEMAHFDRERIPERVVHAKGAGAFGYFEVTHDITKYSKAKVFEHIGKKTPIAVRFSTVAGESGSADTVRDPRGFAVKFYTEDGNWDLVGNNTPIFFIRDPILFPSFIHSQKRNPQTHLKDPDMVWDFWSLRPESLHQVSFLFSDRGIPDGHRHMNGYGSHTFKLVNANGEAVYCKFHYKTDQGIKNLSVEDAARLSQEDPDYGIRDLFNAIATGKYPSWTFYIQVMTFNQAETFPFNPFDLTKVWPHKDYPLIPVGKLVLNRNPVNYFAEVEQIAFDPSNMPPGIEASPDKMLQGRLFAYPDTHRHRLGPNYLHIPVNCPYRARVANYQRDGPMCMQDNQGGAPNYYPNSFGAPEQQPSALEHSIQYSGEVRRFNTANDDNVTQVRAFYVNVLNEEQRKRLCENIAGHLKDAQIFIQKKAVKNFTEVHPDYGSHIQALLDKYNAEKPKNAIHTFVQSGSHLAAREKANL
# Experiment: Conversion of catalase to compound I (wave-scan spectroscopy)
# Format: biochemical
# Settings: not given
# Source text: (§1) This generation appears to involve the mechanism described by Wentworth et al in which proteins can utilize water as a catalyst to generate H2O2 (12) Once formed by lysozyme, H2O2 then reacts with intrinsic catalase to form a species of catalase termed Compound I (2) Compound I then acts to generate cyclic-guanosine monophosphate which in turn causes vasodilation. […] These as well as other mechanisms may account for the efficacy of ethyl-gallate treatment in septic shock.
row,Molecule,inhibition of degradation of catalase to compound I
1,"O=C(O)c1cc(O)c(O)c(O)c1 [gallic acid, reference compound]",can also prevent

# System: not listed separately
# Experiment: Hydrogen peroxide scavenging (Amplex Red assay, electrochemical techniques, glucosidase/glucose assay)
# Format: biochemical
# Settings: multiple methodologies
# Source text: as §1
row,Molecule,scavenging of hydrogen peroxide
1,"O=C(O)c1cc(O)c(O)c(O)c1 [gallic acid, reference compound]",can scavenge

# System: POX-induced vasodilation in carotid and superior mesenteric arterial preparations
# Experiment: Peroxacetic acid (POX)-induced vasodilation in carotid and superior mesenteric arterial preparations
# Parameters: species or system canine
# Settings: not given
# Source text: POX is a hydroperoxide (slightly different from the molecule of hydrogen peroxide) that also may be released in septic shock by macrophages and inflammatory cells. […] However, the pathway by which POX caused vasodilation is much different than that caused by lysozyme. […] To some extent, therefore, the improvement in hemodynamics previously observed when ethyl-gallate was infused in our in-vivo study could have also been related to ethyl-gallate's inhibition of the POX pathway in addition to ethyl-gallate's inhibitory-effect on lysozyme mediated pathways.
# The only similarity found between lysozyme and POX is that POX's mechanism of action is also independent of the endothelium and nitric oxide formation, since we could not prevent POX's vasodilatory effect by removal of the endothelium or by nitric oxide inhibition. In contrast to lysozyme, POX seems to cause vasodilation is by activation of an enzyme in the vascular tissue called prostaglandin H synthase (PHS). PHS has an important mechanism of action, in that after activation by hydroperoxides (such as POX), it can in turn activate the cyclooxygenase pathway leading to vasodilation.
row,Molecule,inhibition of vasodilation caused by POX
1,[Ba] [barium],could be prevented
2,COc1ccc2c(c1)c(CC(=O)O)c(C)n2C(=O)c1ccc(Cl)cc1 [indomethacin],could be inhibited
3,[K+] [potassium],could be prevented

# System: not listed separately
# Experiment: In-vivo study of mannitol (not further described)
# Settings: not given
# Description: Ethyl gallate is added to food as an antioxidant. It is the ethyl ester of gallic acid. Though found naturally in a variety of plant sources including walnuts (8), ethyl gallate is produced from gallic acid and ethanol (9). […] Thus, ethyl gallate, methyl gallate, and ethyl 3,4 dihydroxybenzoate has unique properties for the treatment of septic shock. It is of note that if a substance could not inhibit lysozyme's effect in-vitro, then it would be worthless to pursue an in-vivo study.
row,Molecule,effect in-vivo
1,OC[C@@H](O)[C@@H](O)[C@H](O)[C@H](O)CO [mannitol],did not have a positive effect
